Source: ChEMBL document CHEMBL3632472, “Bastadins, brominated-tyrosine derivatives, suppress accumulation of cholesterol ester in macrophages” (Bioorg Med Chem Lett, 2015)
Activity calls are given as the source filed them. The calls are words filed in the database; no cut-off is given here.

Columns and labels:
[1] = test system: MDM; test: Inhibition of ACAT in human MDM cells assessed as inhibition of foam cell formation by measuring acetylated LDL-induced [3H]cholesterol ester accumulation at 5 uM after 24 hrs in presence of 0.1 mM [3H]oleate; format: cell-based
[2] = Cytotoxicity against human MDM cells at 5 uM after 24 hrs; format: cell-based
[3] = biological target: T1, Sterol O-acyltransferase 1 (Homo sapiens) (UniProt P35610); test: Inhibition of human ACAT1 expressed in CHO cells assessed as inhibition of [3H]cholesterol ester accumulation at 5 uM in presence of 0.1 mM [3H]oleate-conjugated BSA; format: cell-based
T1 sequence (whole entry): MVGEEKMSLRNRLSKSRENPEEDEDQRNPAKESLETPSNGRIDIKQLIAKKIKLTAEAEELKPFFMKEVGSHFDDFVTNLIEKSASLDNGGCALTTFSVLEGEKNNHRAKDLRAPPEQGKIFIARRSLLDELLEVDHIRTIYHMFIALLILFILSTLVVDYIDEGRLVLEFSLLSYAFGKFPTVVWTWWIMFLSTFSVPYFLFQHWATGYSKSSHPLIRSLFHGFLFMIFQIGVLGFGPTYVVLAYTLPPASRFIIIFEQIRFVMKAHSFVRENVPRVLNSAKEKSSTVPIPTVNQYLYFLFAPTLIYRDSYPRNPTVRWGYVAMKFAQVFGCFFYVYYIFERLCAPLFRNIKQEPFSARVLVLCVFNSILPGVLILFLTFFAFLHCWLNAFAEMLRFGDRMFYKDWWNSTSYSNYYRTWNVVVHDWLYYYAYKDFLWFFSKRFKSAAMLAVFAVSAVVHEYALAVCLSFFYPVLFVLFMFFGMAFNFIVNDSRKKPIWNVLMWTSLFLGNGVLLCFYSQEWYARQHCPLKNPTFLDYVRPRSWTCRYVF

[4] = biological target: T2, Sterol O-acyltransferase 2 (Homo sapiens) (UniProt O75908); test: Inhibition of human ACAT2 expressed in CHO cells assessed as inhibition of [3H]cholesterol ester accumulation at 5 uM in presence of 0.1 mM [3H]oleate-conjugated BSA; format: cell-based
T2 sequence (whole entry): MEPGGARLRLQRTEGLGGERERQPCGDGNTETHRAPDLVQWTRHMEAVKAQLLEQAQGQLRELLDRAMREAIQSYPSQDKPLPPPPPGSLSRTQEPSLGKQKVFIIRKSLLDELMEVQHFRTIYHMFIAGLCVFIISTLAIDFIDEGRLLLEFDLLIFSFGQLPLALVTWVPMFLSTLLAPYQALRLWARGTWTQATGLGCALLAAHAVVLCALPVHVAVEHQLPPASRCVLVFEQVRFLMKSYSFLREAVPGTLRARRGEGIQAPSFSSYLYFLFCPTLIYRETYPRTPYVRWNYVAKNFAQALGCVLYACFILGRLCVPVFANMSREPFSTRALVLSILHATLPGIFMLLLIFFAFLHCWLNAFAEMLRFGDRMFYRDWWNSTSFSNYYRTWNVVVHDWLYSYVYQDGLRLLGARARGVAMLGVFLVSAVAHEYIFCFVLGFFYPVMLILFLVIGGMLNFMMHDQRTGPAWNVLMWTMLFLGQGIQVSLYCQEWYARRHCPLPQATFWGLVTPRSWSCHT

[5] = biological target: T1, Sterol O-acyltransferase 1 (Homo sapiens); test: Inhibition of human ACAT1 expressed in CHO cells at 5 uM using [14C]oleoyl-CoA as substrate; format: cell-based
[6] = biological target: T2, Sterol O-acyltransferase 2 (Homo sapiens); test: Inhibition of human ACAT2 expressed in CHO cells at 5 uM using [14C]oleoyl-CoA as substrate; format: cell-based
[7] = test system: CHO; test: Cytotoxicity against CHO cells at 5 uM; format: cell-based, Cricetulus griseus; conditions: chinese hamster
[8] = test system: MDM; test: Inhibition of human ACAT in MDM cells microsomal fraction assessed as inhibition of cholesteryl [14C]oleate formation at 5 uM for 15 mins in presence of [14C]oleoyl-CoA; format: cell-based
[9] = test system: MDM; test: Effect on ACAT1 expression in human MDM cells at 5 uM for 24 hrs by western blot analysis; format: functional, cell-based
[10] = test system: MDM; test: Effect on ACAT2 expression in human MDM cells at 5 uM for 24 hrs by western blot analysis; format: functional, cell-based
[11] = test system: MDM; test: Effect on SR-A expression in human MDM cells at 5 uM for 24 hrs by western blot analysis; format: functional, cell-based
[12] = test system: MDM; test: Effect on SR-BI expression in human MDM cells at 5 uM for 24 hrs by western blot analysis; format: functional, cell-based
[13] = test system: MDM; test: Effect on CD36 expression in human MDM cells at 5 uM for 24 hrs by western blot analysis; format: functional, cell-based
[14] = test system: MDM; test: Effect on triacylglycerol accumulation in human MDM cells at 5 uM after 24 hrs in presence of 50 ug/ml acetylated LDL and 0.1 mM [3H]oleate; format: functional, cell-based
[15] = test system: MDM; test: Effect on phospholipid accumulation in human MDM cells at 5 uM after 24 hrs in presence of 50 ug/ml acetylated LDL and 0.1 mM [3H]oleate; format: functional, cell-based

Row | inhibition [3] | inhibition [4] | inhibition [5] | inhibition [6] | SMILES | inhibition [1] [%] | Activity [2] | Activity [7] | inhibition [8] | Activity [9] | Activity [10] | Activity [11] | Activity [12] | Activity [13] | Activity [14] | Activity [15]
1 | inactive | inactive | – | – | O=C(NCCc1ccc(O)c(Br)c1)/C(Cc1ccc(O)c(Br)c1)=N\O [HEMIBASTADIN 1] | 5 | Non-toxic | – | – | – | – | – | – | – | – | –
2 | inactive | inactive | inactive | inactive | O=C1NCCc2cc(Br)c(O)c(c2)Oc2c(Br)cc(cc2Br)[C@H](O)CNC(=O)/C(=N/O)Cc2cc(Br)c(O)c(c2)Oc2ccc(cc2Br)C/C1=N\O [BASTADIN 12] | 80 | Non-toxic | – | – | – | – | – | – | – | – | –
3 | 57% | 61% | 61% | 58% | O=C1NCCc2ccc(O)c(c2)Oc2c(Br)cc(cc2Br)CCNC(=O)/C(=N/O)Cc2cc(Br)c(O)c(c2)Oc2c(Br)cc(cc2Br)C/C1=N\O [BASTADIN 16] | 88 | Non-toxic | Non-toxic | – | – | – | – | – | – | inactive | inactive
4 | inactive | inactive | – | – | O=C1N/C=C/c2ccc(c(Br)c2)Oc2cc(cc(Br)c2O)CCNC(=O)/C(=N/O)Cc2cc(Br)c(c(Br)c2)Oc2cc(cc(Br)c2O)C/C1=N\O [BASTADIN 4] | 36 | Non-toxic | – | – | – | – | – | – | – | – | –

The next lines start with the compound.

Row | SMILES | inhibition [3] | inhibition [4] | inhibition [5] | inhibition [6] | inhibition [1] [%] | Activity [2] | Activity [7] | inhibition [8] | Activity [9] | Activity [10] | Activity [11] | Activity [12] | Activity [13] | Activity [14] | Activity [15]
5 | O=C1N/C=C/c2ccc(c(Br)c2)Oc2cc(cc(Br)c2O)CCNC(=O)/C(=N/O)Cc2ccc(c(Br)c2)Oc2cc(cc(Br)c2O)C/C1=N\O [BASTADIN 7] | inactive | inactive | – | – | 39 | Non-toxic | – | – | – | – | – | – | – | – | –
6 | O=C1NCCc2ccc(O)c(c2)Oc2ccc(cc2Br)CCNC(=O)/C(=N/O)Cc2cc(Br)c(O)c(c2)Oc2c(Br)cc(cc2Br)C/C1=N\O | inactive | inactive | inactive | inactive | 80 | Non-toxic | – | – | – | – | – | – | – | – | –
7 | O=C1NCCc2cc(Br)c(O)c(c2)Oc2c(Br)cc(cc2Br)CCNC(=O)/C(=N/O)Cc2cc(Br)c(O)c(c2)Oc2c(Br)cc(cc2Br)C/C1=N\O [BASTADIN 6] | 86% | 87% | 82% | 89% | 96 | Non-toxic | Non-toxic | Active | inactive | inactive | inactive | inactive | inactive | inactive | inactive
8 | O=C1NCCc2cc(Br)c(O)c(c2)Oc2ccc(cc2Br)CCNC(=O)/C(=N\O)Cc2cc(Br)c(O)c(c2)Oc2c(Br)cc(cc2Br)C/C1=N/O [BASTADIN 5] | inactive | inactive | – | – | 58 | Non-toxic | – | – | – | – | – | – | – | – | –
